Laboratory results taken from paper PMC6014988, “Precision therapeutic targeting of human cancer cell motility” (Nature Communications, 2018).
Several values for one entry are separate records, joined by “and”; a condition that tells them apart may be missing. Identical values can stand only once.

Legend:
[1] = tested on: human PCa PC3-M cell orthotopic implants; assay: Murine orthotopic implantation model of human PCa, lung metastasis; type: in vivo, mouse
Protocol: Prostate cancer: orthotopic implantation: Orthotopic implantation of human GFP-PC3-M PCa cells into 6–8 week male Balb/c athymic mice (Charles River Laboratories) and quantification of distant metastasis was performed as described by us[37]. Treatment with KBU2046, incorporated into Harlan Teklad 2016S® chow, began 1 week prior to implantation. Animals were excluded from the analysis if they died and/or met the criteria for killing in the 7 day post-operative period. Experimental groups were randomly assigned to cages prior to the initiation of the study. Metastasis were scored in a blinded fashion. Specifically, animals were assigned an ID number, resultant histologic slides contained a separate pathological ID number, slides were scored in a random fashion, after which the two numbers were linked up.

[2] = tested on: over 400 different protein kinases and 20 phosphatases; assay: Kinase and phosphatase inhibition, three in vitro assay systems; type: biochemical
Protocol: Initial assays were performed with PC3 and PC3-M cells (PC3 cell data not shown). However, as these studies yielded similar findings, subsequent screening assays utilized only PC3-M cells. In designing chemical synthetic routes, priority was given to efficacy and toxicity parameters. Additional design features were also included in our chemical […]
toxicity parameters. These additional design features included removal of fragments that mediated genistein binding to the estrogen receptor (ER), as determined by ER-genistein 3D x-ray crystal structures (Protein Data Base IDs:1X7R and 1X7J, for crystal structures of ERα and ERβ with bound genistein, respectively). These features also included removal of chemical fragments that are considered to increase susceptibility to rapid metabolism, especially that by the cytochrome P450 (CYP) pathway. The final feature involved incorporation of chemical characteristics previously shown to be associated with effective drugs and which together generally impart more favorable pharmacologic properties, including those described by Lipinski […]
Supplementary Note 2. […] Three […]
different assays systems were employed.
Kinase assay system #1. The KINOMEscan™ assay (Ambit Biosciences). This assay evaluates 442 kinases, including 400 distinct parental kinases plus mutants known to alter activity or responsiveness. […]

PC3-luc cells = assay: Intracardiac injection PC3-luc bone metastasis model; type: in vivo, mouse
Source text: Fig. 3 KBU2046 inhibits bone destruction. a Treatment schema. Athymic mice were given intracardiac (IC) injections of PC3-luc cells on day 0 under ultrasound guidance, and underwent weekly IVIS imaging starting 7 days post injection. Cohorts of N = 20 control, N = 20 pre (treatment from 3 days prior to IC injection through end of the experiment), N = 10 Pre7Stop (treatment from 3 days prior to IC injection through 7 days post IC injection), and N = 10 post-treatment (treatment from 3 days post IC injection through end of the experiment) mice were dosed with 80 mg/kg KBU2046 daily by oral gavage and mock-treated with vehicle all other times. Whole-body (b) and mandible (c) flux are depicted, as determined from weekly IVIS imaging. d At week 4 post injection (i.e., at the end of the experiment), CT scans were performed on control, pre-, and post-treatment cohorts, and mandibular destruction quantified. e Representative images of pre and control mice are depicted. Arrows denote areas of bone destruction in controls, and corresponding areas in the pre mouse. Student’s t-test (b, c) and Fisher’s exact test (d) P values between the denoted cohorts are shown
Prostate cancer: intracardiac (IC) injection: IC injection of 4.0 × 10^5 PC3-Luc cells into male 6–8 week old athymic mice with IVIS imaging was performed as described, and was done so under ultrasound guidance (Supplementary Fig. 9). Mice were treated pre- and/or post-IC injection, as indicated. The pretreatment cohort emulates a metastasis naive model wherein cell motility is required in order for cells to invade into a distant organ, in this case, the jaw bone, for which this model is widely used. If KBU2046 were inhibiting cell motility, then in this model it would act to inhibit metastasis formation. In contrast, with the post-implantation cohort, cells have already completed invasion into the jaw bone, and distant metastasis have been established. […] IVIS imaging was performed 30 min after IC injection to confirm systemic distribution of cells, and thereafter weekly for 4 weeks starting 7 days post injection, allowing real-time tracking of metastasis development and growth. Computed tomograpgy (CT) (Inveon, Seimens) radiographic imaging was performed on some mice, as indicated, and resultant images analyzed in a blinded fashion using Inveon Research Workplace 4.2 visualization/analysis software and ImageJ. […] Experimental groups were randomly assigned to cages prior to the initiation of the study. CT images were analyzed in a blinded fashion to determine total bone loss using both the Invenon Research Workplace 4.2 visualization/analysis software and ImageJ. Specifically, to asses bone loss in an unbiased manner, an operator randomly loaded images into the system and blocked out identifying information prior to analysis by two separate blinded individuals.

[3] = tested on: human breast cancer LM2-4H2N cells; assay: Breast cancer orthotopic implantation and resection survival model; type: in vivo, mouse; conditions: 25 mg/kg oral gavage five times per week, post-surgery adjuvant setting
Protocol: Breast cancer: orthotopic implantation: Orthotopic implantation of 2 × 10^6 dTomato-LM2-4H2N cells in matrigel:PBS human breast cancer cells into 5–6 week old female SCID-Beige mice (Taconic), followed by resection of resultant primary tumor, provides a model wherein survival is dictated by metastatic burden, and was performed as described. KBU2046 treatment by oral gavage 5 days per week began 4 weeks after resection, with weekly IVIS imaging. Animals were excluded from the analysis if they died and/or met the criteria for euthanasia in the 7 day post-operative period. Experimental groups were randomly assigned based upon size of primary tumor before treatment, in and manner that ensured equal distribution of tumor sizes across treatment groups.

[4] = pre-cohort, 80 mg/kg daily oral gavage

Q: Which decrease in metastasis ([1]; KBU2046 in chow, dose-dependent) does the source give for O=C1c2ccccc2OCC1c1ccc(F)cc1 (racemic) [KBU2046, (±)-3(4-fluorophenyl)chroman-4-one] here?
A: The decrease in metastasis was “up to 92%”.

Q: And the suppression of metastasis ([1]; at a plasma concentration of 24 nM)?
A: The suppression of metastasis was 92% and > 90%.

Q: And the primary tumor growth ([1]; tumor weight, mice of Fig. 2a)?
A: The primary tumor growth was “does not inhibit primary tumor cell growth”.

Q: And the “inhibition of protein kinases and phosphatases” value [2]?
A: Its value is “failure to inhibit”.

Q: What about the total body metastasis (PC3-luc cells; Pre7Stop cohort) of the same compound?
A: The total body metastasis was “total body metastasis is significantly decreased”.

Q: And the “metastasis to the total body and jaw” value (PC3-luc cells; post-cohort, treatment from 3 days post IC injection)?
A: Its value is “do not differ from control mice”.

Q: What about the “metastasis to the mandible” value (PC3-luc cells; [4]) of the same compound?
A: The value was “decreased metastasis to the mandible”.

Q: And the total metastatic burden (PC3-luc cells; [4])?
A: Its total metastatic burden is “significant decrease in total metastatic burden”.

Q: What about the “destruction of bone (mandible, CT)” value (PC3-luc cells; pre-cohort, week 4) of the same compound?
A: Its value is “decreased destruction of bone”.

Q: And the survival [3]?
A: The survival was “significantly prolonged the survival”.
